Results from patent US8399466B2, “Composition for regenerative treatment of cartilage disease” (Mitsubishi Tanabe Pharma Corporation, priority 2001, dated 2013).

Experiments:
type II collagen gene = experiment: Expression of gene encoding cartilage matrix protein (Northern hybridization), type II collagen; assay type: cell-based, rabbit; conditions: cultured 4 days, control = 100%
Protocol: (§1) Total RNA was extracted with ISOGEN (Nippon Gene Co., Ltd.) from rabbit knee articular chondrocytes cultured for 4 days according to the same manner as Experimental Example 1 in the presence of Compound (1) at a final concentration of 1×10^−4 M or 1×10^−5 M, and 15 μg of the total RNA was dissolved in 4.5 μl of a sterilized water. This solution was combined with 2 μl of 5×MOPS buffer, 3.5 μl of formaldehyde and 10 μl of formamide, and denatured at 90° C. for 15 minutes. The mixture was then electrophoresed on 1% agarose gel in the presence of formaldehyde. After completion of electrophoresis, RNA was transferred to a nylon membrane (Amersham Pharmacia Biotech) overnight by capillary method. The RNA was fixed to the nylon membrane by UV crosslinking and subjected to prehybridization at 60° C. for 2 hours in 50 ml of hybridization solution (6×SSC, 5×Denhart's solution, 0.5% SDS, 100 μg/ml heat-denatured salmon sperm DNA, free of 50% formamide).
(§2) Then, DNA probes of mouse type II collagen gene and human aggrecan. […] The nylon membrane was subjected to an autoradiography and exposed to X-ray film using LAS-1000 (Fuji Photo Film Co., Ltd.) A relative amount of each RNA was measured using Image Gause (Fuji Photo Film Co., Ltd.) and corrected with […] (internal RNA: internal control). The gene expression rate in test group was calculated by assuming that in control group as 100%.

articular chondrocytes = experiment: Increase of matrix production of articular chondrocytes (Alcian blue staining of proteoglycan); assay type: cell-based, rabbit; conditions: for Proteoglycan Production (%): cultivation until day 5, vehicle = 100; for matrix production promoting activity: summary of Table 1
Protocol: Four NZW line rabbits (Kitayama Labes., Co Ltd.; male; 4-week-old) were sacrificed with bleeding under ether anesthesia and femur knee joints were collected aseptically. The collected knee joints were stored in phosphate buffer (pH 7.2) containing 0.2% glucose and only the cortical layer of knee joint was scrapped with a surgical knife into a 50 ml tube containing phosphate buffer (pH 7.2) containing 0.2% glucose. The collected knee joint cortical layer was cut into as small sections as possible on a dish with a razor and shaken at 37° C. for 15 minutes in phosphate buffer containing 0.2% glucose, supplied with 10× trypsin-ethylenediamine tetraacetic acid (EDTA)·4 Na salt (GIBCO; Cat. No. 15400-054) (50 ml, with 100 mg of trypsin and 40 mg of EDTA·4Na; pH 7.2). After shaking, the sample was centrifuged (1,400 rpm) to collect precipitates, and the precipitates were washed twice with 40 ml of phosphate buffer containing 0.2% glucose. The washed precipitates were combined with 40 ml of serum-free α-minimum essential medium (MEM: GIBCO; Cat: No. 12571-063) containing 60 mg of collagenase for cell diffusion (Wako Pure Chemical Industries, Ltd., 034-10533) and transferred to a 100 ml beaker containing a sterilized stirrer bar. Under stirring with the stirrer bar, the collagenase digestion was carried on for about 1 hour in a CO2 incubator at 37° C. Cartilage fragments were removed from the collagenase-treated cells using a […] Cell Strainer ([FALCON; Cat. No. 2340]). To the residual treated cells was added 10 ml of α-MEM medium containing 10% fetal calf serum (FCS), and centrifuged (1,400 rpm). The precipitates were washed with 10% FCS-αMEM medium twice, suspended in appropriate volume of the same medium and the resultant suspension was seeded into collagen type II (Wako Pure Chemical Industries, Ltd., 033-13901)-coated plates (48 well) at 20,000 cells/well. On the next day, the medium was replaced with 10% FCS-αMEM medium.
When cells reached to confluent after the medium exchange procedure above, the medium for test group was replaced with test compound-containing medium (including 0.1% dimethylsulfoxide as a vehicle). As a medium to which a test compound is added, 10% FCS-αMEM medium containing 0.2 mM ascorbic acid was used. The day on which test compound-containing medium was added for the first time was defined as “day 1”. The medium exchange with the same medium was again conducted at day 3 and the cultivation continued until day 5. As to the control group, the medium was exchanged at the same time using the same medium as the test group except that it is free of test compound (containing vehicle only), and the cultivation was carried out in the same manner. After completion of cultivation, the supernatant was removed from the culture medium. Cells were fixed by addition of 0.25 ml of neutral buffer containing 4% paraformaldehyde and incubation for 2 hours. Cells were washed three times with 1 ml of phosphate buffer (pH 7.2) and then stained for 4 hours with 0.1% Alcian blue 8GX (Sigma; A3157) dissolved in 0.1 M hydrochloric acid, which Alcian blue selectively stains cartilage matrix proteoglycan. After staining, the cells were washed 3 times with 1 ml of phosphate buffer (pH 7.2). Alcian blue which had stained cartilage matrix was dissolved with 0.25 ml of aqueous 6 M guanidine hydrochloride solution and a portion of the solution was used to determine the absorbance at 620 nm. The amounts of Alcian blue used for staining was calculated from the absorbance, which in turn was used for the estimation of the amount of matrix (proteoglycan).

[1] = test system: cAMP hydrolytic PDE expressed in human articular cartilage (fraction Nos. 28-30); experiment: Inhibition of cAMP hydrolyzing activity of fraction Nos. 28-30 of human articular cartilage extract; assay type: biochemical
Protocol: From the human knee articular cartilage was isolated on surgery of osteoarthrosis patients. Cartilage portion was scrapped with a surgery knife, washed with ice-cold phosphate buffer and stored at −80° C. The cartilage tissues were milled at −80° C. and then, scattered into pieces with homogenizer (Kinematica A.G., Polytron) in ice-cold homogenization buffer (20 mM Tris-HCl, pH 8.0, 1 mM ethylene glycol bis(β-aminoethylether)-N,N,N′,N′-tetraacetic acid, 1 mM dithiothreitol, 10 μg/ml leupeptin, 5 mM benzamidine, 0.2 mM phenylmethylsulfonyl fluoride, 1 mM sodium azide and 5 mM mercaptoethanol). The resultant homogenate was centrifuged (100,000×g; 30 minutes) to separate supernatant.
The above supernatant was loaded on a Mono Q Sepharose High Performance column (Amersham Pharmacia Biotech) equilibrated with elution buffer (20 mM Tris-HCl, pH 8.0, 1 mM ethylene glycol bis(β-aminoethylether)-N,N,N′,N′-tetraacetic acid, 1 mM dithiothreitol, 2 μg/ml leupeptin, 5 mM benzamidine). After washing the column with 20 ml of elution buffer, proteins were eluted into 1 ml fractions by aqueous sodium chloride solution (concentration gradient: 0 to 1000 mM, 70 ml) under ice-cooling. Each fraction was subjected to the determination of hydrolytic activity (PDE activity) toward cAMP and cGMP as a substrate.
The determination of PDE activity was performed by a radio-labeled nucleic acid assay. That is, the reaction was initiated by adding from 10 to 50 μl of elution fraction to 500 μl of assay buffer (50 mM Tris-HCl, pH 8.0, 5 mM magnesium chloride, 4 mM 2-mercaptoethanol) containing 1 μM of unlabeled cAMP and 22 nM of [^3H]-cAMP (Amersham Pharmacia Biotech).
After incubation at 37° C. for 30 minutes, the reaction was quenched by boiling for 1.5 minutes. Then, 100 μl of 1 mg/ml Crtalus atrox snake venom was added and incubated at 37° C. for 30 minutes. After addition of 500 μl of methanol, the reaction solution was subjected to Dowex column (1×8-400). To each eluate was added a liquid scintillation cocktail and the radio activity was measured.
The inhibitory activity of PDE4 inhibitor on fraction Nos. 28-30 containing potent cAMP hydrolyzing activity was measured according to the above-mentioned radio-labeled nucleic acid assay. The test compounds are Compound (1), Compound (2), Compound (11), Compound (44) and Compound (27).

aggrecan gene = experiment: Expression of gene encoding cartilage matrix protein (Northern hybridization), aggrecan; assay type: cell-based, rabbit; conditions: cultured 4 days, control = 100%
Protocol: as §1, §2

[2] = test system: rabbit articular chondrocytes; experiment: Matrix production of rabbit articular chondrocytes in the presence of IL-1; assay type: cell-based; conditions: 1 × 10^−6 M; IL-1β 1 ng/ml; until day 3; vehicle = 100
Protocol: Four NZW line rabbits (Kitayama Labes., Co Ltd.; male; 4-week-old) were sacrificed with bleeding under ether anesthesia and knee joints of femur side were collected aseptically. Only the cortical layer was scrapped with a surgical knife in phosphate buffer (pH 7.2) containing 0.2% glucose and then placed into a 50 ml tube containing phosphate buffered saline containing 0.2% glucose. The collected knee joint cortical layer was cut into as small sections as possible on a dish with a razor, combined with 50 ml of phosphate buffer (100 mg trypsin, 40 mg EDTA·4 Na; pH 7.2) containing 0.2% glucose, supplied with 10× trypsin-ethylenediamine tetraacetic acid tetra sodium salt (EDTA·4Na: GIBCO; Cat. No. 15400-054) and shaken at 37° C. for 15 minutes.
After shaking, the precipitates were collected by centrifugation (1,400 rpm) and washed twice with 40 ml of phosphate buffer (pH 7.2) with 0.2% glucose.
To the washed precipitates was added 40 ml of α-minimum essential medium (MEM: GIBCO; Cat. No. 12571-063) containing 60 mg of collagenase for cell diffusion (Wako Pure Chemical Industries, Ltd., 034-10533) and antibiotics (200 U/ml penicillin G and 200 μg/ml streptomycin sulfate) (GIBCO; Cat. No. 15140-122), and the mixture was transferred to a 100 ml beaker containing a sterilized stirrer bar.
The incubation was conducted in a CO2 incubator at 37° C. for 30 minutes under stirring with a stirrer bar. Deoxyribonuclease I (Takara Shuzo Co., LTD.; Cat. No. 2210A) was then added at a concentration of 70 U/ml. The cultivation was conducted under the same condition for another 30 minutes. The supernatant of the culture was collected in another vessel and the remaining cartilage slips were then cultured again for about 30 minutes in freshly prepared α-minimum essential medium containing 60 mg of collagenase and 70 U/m1 deoxyribonuclease I.
To the previously collected culture supernatant and the last culture, from which cartilage slips had been removed using a 40 μm Cell Strainer (FALCON; Cat. No. 2340), 10 ml of α-minimum essential medium (MEM: GIBCO; Cat. No. 12571-063) containing 10% fetal calf serum (GIBCO Cat. No. 10099-141) and antibiotics (200 U/ml penicillin G and 200 μg/ml streptomycin sulfate) (GIBCO; Cat. No. 15140-122) was added and centrifuged (1,400 rpm, 10 minutes).
The precipitates were washed twice with α-minimum essential medium containing 10% fetal calf serum and antibiotics, suspended with an appropriate volume of the same medium, and seeded into 48-well plates (20,000 cells/well). […]
After staining, the cells were washed 3 times with 1 ml of phosphate buffer (pH 7.2). Alcian blue which had stained cartilage matrix was dissolved with 0.25 ml of 6 M aqueous guanidine hydrochloride solution and a portion of which was used to determine the absorbance at 620 nm. […]

CCOc1cc2cc(CO)c(CO)c(-c3ccn(CCOC)c(=O)c3)c2cc1OCC [Compound (1)]
Expression of Type II collagen gene (%) (type II collagen gene; 10^−4 M): 406% | Expression of Type II collagen gene (%) (type II collagen gene; 10^−5 M): 278% | Proteoglycan Production (%) (articular chondrocytes; 1 × 10^−4 M): 144% | Proteoglycan Production (%) (articular chondrocytes; 1 × 10^−5 M): 133% | matrix production promoting activity (articular chondrocytes): exert matrix production promoting activity | inhibition of the hydrolytic activity of the fraction ([1]; fraction Nos. 28-30, FIG. 4): inhibits the hydrolytic activity of the fraction strongly | IC50 for fraction(s) ([1]; method of Journal of Medicinal Chemistry, vol. 42, 1088-1099 (1999), values only in FIG. 4): consistent with the IC50 of PDE4 inhibition activity described in the same literature | Expression of aggrecan gene (%) (aggrecan gene; 10^−4 M): 4262% | Expression of aggrecan gene (%) (aggrecan gene; 10^−5 M): 2693%

COc1ccc(/C(C)=N/OC(N)=O)cc1OC1CCCC1 [Compound (9)]
Proteoglycan Production (%) (articular chondrocytes; 1 × 10^−5 M): 138% | Proteoglycan Production (%) (articular chondrocytes; 1 × 10^−6 M): 128% | matrix production promoting activity (articular chondrocytes): exert matrix production promoting activity

COc1ccc([C@H](Cc2ccncc2)c2ccccc2)cc1OC1CCCC1 [Compound (21)]
Proteoglycan Production (%) (articular chondrocytes; 1 × 10^−5 M): 120% | Proteoglycan Production (%) (articular chondrocytes; 1 × 10^−6 M): 115% | matrix production promoting activity (articular chondrocytes): exert matrix production promoting activity

COc1ccc([C@]2(C#N)CC[C@H](C(=O)O)CC2)cc1OC1CCCC1 [Compound (27)]
Proteoglycan Production (%) (articular chondrocytes; 1 × 10^−5 M): 131% | Proteoglycan Production (%) (articular chondrocytes; 1 × 10^−6 M): 129% | matrix production promoting activity (articular chondrocytes): exert matrix production promoting activity

COc1cc2c(cc1OC)C(c1ccnc(-n3ccc4c(OCCN5CCOCC5)cccc4c3=O)c1)=N[C@H](CO)C2 [Compound No. 52]
Proteoglycan Production (%) [2]: 209%

COc1cc2cc(CO)c(CO)c(-c3ccnc(-n4ccc5ccccc5c4=O)c3)c2cc1OC [Compound No. 56]
Proteoglycan Production (%) [2]: 168%
